# In ChEMBL document CHEMBL1255246, “Systemic pharmacokinetics of rifaximin in volunteers with shigellosis” (Antimicrob Agents Chemother, 2008):
# Key:
# Type in all cases: ADME, organism-based
# [1] = Drug level in healthy human urine at 400 mg single dose; settings: read-out: Drug uptake
# [2] = Cmax in Shigella flexneri challenged human at […], po administered every 8 hrs for three days measured after third dose; set-up: route oral; settings: in vivo
# [3] = Drug level in healthy human feces at 400 mg single dose; settings: faeces, read-out: Drug uptake
# [4] = AUC (0 to last) in Shigella flexneri challenged human at […], po administered every 8 hrs for three days measured after third dose; set-up: route oral, time 0 - last; settings: plasma
# [5] = AUC (0 to last) in Shigella flexneri challenged human at […], po administered every 8 hrs for three days measured after last dose; set-up: time 0 - last, route oral; settings: plasma
# [6] = Tmax in Shigella flexneri challenged human at […], po administered every 8 hrs for three days measured after last dose; set-up: route oral; settings: in vivo
# [7] = Cmax in Shigella flexneri challenged human at […], po administered every 8 hrs for three days measured after last dose; set-up: route oral; settings: in vivo
# [8] = Oral bioavailability in human at 200 mg three times a day for 3 days; settings: in vivo
# [9] = Tmax in Shigella flexneri challenged human at […], po administered every 8 hrs for three days measured after third dose; set-up: route oral; settings: in vivo
smiles,measurement,setting,value
CO[C@H]1/C=C/O[C@@]2(C)Oc3c(C)c(O)c4c(O)c(c5c(nc6cc(C)ccn65)c4c3C2=O)NC(=O)/C(C)=C\C=C\[C@H](C)[C@H](O)[C@@H](C)[C@@H](O)[C@@H](C)[C@H](OC(C)=O)[C@@H]1C [RIFAXIMIN],dose excreted,[1],0.32%
same,Cmax,[2],1.63 ng/mL
same,dose excreted,[3],97%
same,AUC(0-t) at 8 h,[4],6.95 ng·h/mL
same,AUC(0-t) at 8 h,[5],7.83 ng·h/mL
same,Tmax,[6],2.11 h
same,Cmax,[7],1.23 ng/mL
same,bioavailability,[8],< 0.4%
same,Tmax,[9],2.77 h
